Assay results as given in ChEMBL document CHEMBL4765232 (J Med Chem, 2016).
The source made the active and inactive calls. No cut-off for these calls is given here.

Experiments:
[1] = Half life in Balb/c mouse plasma at 1 mg/kg, iv formulated with 5:60:35 DMA/PEG400/20% SBECD; format: ADME, organism-based
[2] = Volume of distribution at steady in Balb/c mouse at 1 mg/kg, iv formulated with 5:60:35 DMA/PEG400/20% SBECD; format: ADME, organism-based; settings: in vivo, read-out: Vdss
[3] = Tmax in Sprague-Dawley rat at 25 mg/kg, po; format: ADME, organism-based; settings: in vivo
[4] = Cmax in Beagle dog at 5 mg/kg, po; format: ADME, organism-based, Canis lupus familiaris; set-up: route oral, dose 5 mg/kg; settings: in vivo
KARPAS-422 [5] = assay: Antitumor activity against human KARPAS-422 cells harboring EZH2 Y641N mutant xenografted in CB17 SCID mouse assessed as tumor regression at 160 mg/kg, po BID and measured within 2 weeks by caliper method; format: functional, organism-based
[6] = Oral bioavailability in Balb/c mouse at 100 mg/kg formulated in 0.5 % methyl cellulose maintained at pH 3 to 4; format: ADME, organism-based; settings: in vivo, pH 3, 100 mg/kg
[7] = Toxicity in CB17 SCID mouse xenografted with human KARPAS-422 cells harboring EZH2 Y641N mutant assessed as effect body weight loss at 160 mg/kg, po BID administered for 25 days; format: organism-based; settings: in vivo, 600 h, time 25 day
[8] = Protein binding in rat plasma assessed as bound fraction; format: ADME, cell-free; settings: read-out: PPB (converted)
CYP2C9 = CYP2C9 (Homo sapiens, UniProt P11712); assay: Inhibition of CYP2C9 (unknown origin) at 10 uM relative to control; format: ADME
[9] = Unbound AUC in Beagle dog at 5 mg/kg, po; format: ADME, organism-based, Canis lupus familiaris; settings: in vivo
CYP3A4 = CYP3A4 (Homo sapiens, UniProt P08684); assay: Inhibition of CYP3A4 (unknown origin) at 10 uM relative to control; format: ADME
[10] = Fraction unbound in mouse plasma; format: ADME, cell-free
[11] = Half life in Sprague-Dawley rat plasma at 1 mg/kg, iv; format: ADME, organism-based
[12] = Cmax in Sprague-Dawley rat at 25 mg/kg, po; format: ADME, organism-based; set-up: route oral, dose 25 mg/kg; settings: in vivo
CYP2D6 = CYP2D6 (Homo sapiens, UniProt P10635); assay: Inhibition of CYP2D6 (unknown origin) at 10 uM relative to control; format: ADME
[13] = Protein binding in human plasma assessed as bound fraction; format: ADME, cell-free; settings: read-out: PPB (converted)
Cytochrome P450 3A4 = Cytochrome P450 3A4 (Homo sapiens, UniProt P08684); assay: Time dependent inhibition of CYP3A4 (unknown origin); format: ADME
[14] = Protein binding in dog plasma assessed as bound fraction; format: ADME, cell-free, Canis lupus familiaris; settings: read-out: PPB (converted)
[15] = Clearance in Beagle dog at 1 mg/kg, iv; format: ADME, organism-based, Canis lupus familiaris; settings: in vivo
[16] = Unbound AUC in Balb/c mouse at 100 mg/kg, po formulated in 0.5 % methyl cellulose maintained at pH 3 to 4; format: ADME, organism-based; settings: in vivo, pH 3, 100 mg/kg
[17] = Unbound clearance in Sprague-Dawley rat at 1 mg/kg, iv; format: ADME, organism-based; settings: in vivo
[18] = Clearance in Sprague-Dawley rat at 1 mg/kg, iv relative to liver blood flow; format: ADME, organism-based; settings: in vivo
[19] = Unbound AUC in Sprague-Dawley rat at 25 mg/kg, po; format: ADME, organism-based; settings: in vivo
[20] = molecular target: Voltage-gated inwardly rectifying potassium channel KCNH2 (Homo sapiens, UniProt Q12809)
Description: Binding affinity to human ERG

[21] = Clearance in Sprague-Dawley rat at 1 mg/kg, iv; format: ADME, organism-based; settings: in vivo
[22] = Intrinsic clearance in mouse liver microsomes assessed per mg protein; format: ADME, Microsome
[23] = Clearance in Beagle dog at 1 mg/kg, iv relative to liver blood flow; format: ADME, organism-based, Canis lupus familiaris; settings: in vivo
KARPAS-422 [24] = assay: Antitumor activity against human KARPAS-422 cells harboring EZH2 Y641N mutant xenografted in CB17 SCID mouse assessed as tumor growth inhibition at 160 mg/kg, po BID administered for 25 days and measured post-treatment by caliper method relative to control; format: functional; settings: KARPAS-422, po, 600 h, time 25 day, read-out: TGI
Cytochrome P450 2C8 = molecular target: T1, Cytochrome P450 2C8 (Homo sapiens, UniProt P10632); assay: Time dependent inhibition of CYP2C8 (unknown origin); format: ADME
T1 sequence (P10632 whole entry): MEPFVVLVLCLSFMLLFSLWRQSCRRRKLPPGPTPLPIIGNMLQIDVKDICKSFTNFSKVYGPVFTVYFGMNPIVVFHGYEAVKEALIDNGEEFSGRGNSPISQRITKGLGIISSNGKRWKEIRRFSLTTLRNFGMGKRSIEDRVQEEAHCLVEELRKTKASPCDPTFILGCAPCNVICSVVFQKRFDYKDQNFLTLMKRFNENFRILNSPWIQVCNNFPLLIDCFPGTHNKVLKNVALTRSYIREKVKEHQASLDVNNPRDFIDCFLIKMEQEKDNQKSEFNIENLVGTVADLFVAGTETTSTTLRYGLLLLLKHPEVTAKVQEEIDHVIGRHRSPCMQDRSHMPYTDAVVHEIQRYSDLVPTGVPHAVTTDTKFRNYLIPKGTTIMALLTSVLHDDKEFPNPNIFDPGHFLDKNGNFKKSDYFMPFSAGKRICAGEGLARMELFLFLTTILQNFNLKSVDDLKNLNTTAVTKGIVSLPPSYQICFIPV

[25] = Toxicity in Sprague-Dawley rat at 100 to 600 mg/kg, po QD administered via gavage as single dose for 28 days; format: organism-based; settings: in vivo, 672 h, dose 100-600 mg/kg, time 28 day
[26] = Drug concentration in plasma of CB17 SCID mouse xenografted with human KARPAS-422 cells at 160 mg/kg, po BID administered for 17 days and measured up to 12 hrs post last dose by LC-MS analysis; format: ADME, organism-based; settings: time 17 day
[27] = AUC (0 to infinity) in Sprague-Dawley rat at 25 mg/kg, po; format: ADME, organism-based; set-up: route oral, time infinity, dose 25 mg/kg; settings: in vivo
[28] = Oral bioavailability in Sprague-Dawley rat at 25 mg/kg; format: ADME, organism-based; settings: in vivo
[29] = Cmax in Balb/c mouse at 100 mg/kg, po formulated in 0.5 % methyl cellulose maintained at pH 3 to 4; format: ADME, organism-based; set-up: route oral, dose 100 mg/kg; settings: in vivo, pH 3, 100 mg/kg
[30] = Clearance in Balb/c mouse at 1 mg/kg, iv formulated with 5:60:35 DMA/PEG400/20% SBECD; format: ADME, organism-based; settings: in vivo
[31] = AUC (0 to infinity) in Balb/c mouse at 100 mg/kg, po formulated in 0.5 % methyl cellulose maintained at pH 3 to 4; format: ADME, organism-based; set-up: time infinity, route oral, dose 100 mg/kg; settings: in vivo, pH 3, 100 mg/kg
[32] = Oral bioavailability in Beagle dog at 5 mg/kg; format: ADME, organism-based, Canis lupus familiaris; settings: in vivo
[33] = Fraction unbound in Beagle dog plasma; format: ADME, cell-free, Canis lupus familiaris
[34] = Clearance in Balb/c mouse at 1 mg/kg, iv formulated with 5:60:35 DMA/PEG400/20% SBECD relative to liver blood flow; format: ADME, organism-based; settings: in vivo
[35] = Half life in Beagle dog plasma at 1 mg/kg, iv; format: ADME, organism-based, Canis lupus familiaris
[36] = Intrinsic clearance in dog liver microsomes assessed per mg protein; format: ADME, Canis lupus familiaris, Microsome
[37] = Volume of distribution at steady state in Beagle dog at 1 mg/kg, iv; format: ADME, organism-based, Canis lupus familiaris; settings: in vivo, read-out: Vdss
[38] = AUC (0 to infinity) in Beagle dog at 5 mg/kg, po; format: ADME, organism-based, Canis lupus familiaris; set-up: route oral, time infinity, dose 5 mg/kg; settings: in vivo

Sequence of CYP2D6 (P10635 whole entry): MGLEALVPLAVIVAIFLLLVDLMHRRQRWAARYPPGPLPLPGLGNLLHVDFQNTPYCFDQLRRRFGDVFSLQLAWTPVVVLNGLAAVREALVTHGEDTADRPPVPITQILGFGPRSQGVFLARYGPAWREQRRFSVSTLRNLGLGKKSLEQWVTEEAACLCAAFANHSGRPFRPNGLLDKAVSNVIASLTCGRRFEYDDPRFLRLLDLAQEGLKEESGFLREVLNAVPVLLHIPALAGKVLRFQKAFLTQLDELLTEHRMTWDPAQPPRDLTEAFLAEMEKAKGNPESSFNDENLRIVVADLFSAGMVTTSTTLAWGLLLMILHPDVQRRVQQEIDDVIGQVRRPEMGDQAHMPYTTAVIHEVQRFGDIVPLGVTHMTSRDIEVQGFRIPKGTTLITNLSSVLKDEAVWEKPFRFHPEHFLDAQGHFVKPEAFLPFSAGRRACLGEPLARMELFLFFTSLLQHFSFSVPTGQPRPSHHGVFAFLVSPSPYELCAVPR
Sequence of CYP3A4 (P08684 whole entry): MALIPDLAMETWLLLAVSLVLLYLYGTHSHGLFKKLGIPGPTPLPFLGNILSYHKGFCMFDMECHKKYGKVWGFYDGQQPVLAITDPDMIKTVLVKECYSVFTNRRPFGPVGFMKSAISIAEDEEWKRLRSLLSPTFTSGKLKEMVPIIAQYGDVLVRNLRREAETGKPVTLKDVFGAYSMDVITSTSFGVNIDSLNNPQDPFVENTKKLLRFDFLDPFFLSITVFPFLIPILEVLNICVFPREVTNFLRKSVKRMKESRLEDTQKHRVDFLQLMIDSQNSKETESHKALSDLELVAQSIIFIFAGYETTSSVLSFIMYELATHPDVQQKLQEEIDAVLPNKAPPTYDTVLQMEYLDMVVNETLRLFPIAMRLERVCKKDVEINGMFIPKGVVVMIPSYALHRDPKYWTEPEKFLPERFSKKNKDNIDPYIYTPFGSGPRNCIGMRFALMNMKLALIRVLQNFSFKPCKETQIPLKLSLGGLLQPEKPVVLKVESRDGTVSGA
Sequence of Cytochrome P450 3A4 (P08684 whole entry): as above
Sequence of CYP2C9 (P11712 whole entry): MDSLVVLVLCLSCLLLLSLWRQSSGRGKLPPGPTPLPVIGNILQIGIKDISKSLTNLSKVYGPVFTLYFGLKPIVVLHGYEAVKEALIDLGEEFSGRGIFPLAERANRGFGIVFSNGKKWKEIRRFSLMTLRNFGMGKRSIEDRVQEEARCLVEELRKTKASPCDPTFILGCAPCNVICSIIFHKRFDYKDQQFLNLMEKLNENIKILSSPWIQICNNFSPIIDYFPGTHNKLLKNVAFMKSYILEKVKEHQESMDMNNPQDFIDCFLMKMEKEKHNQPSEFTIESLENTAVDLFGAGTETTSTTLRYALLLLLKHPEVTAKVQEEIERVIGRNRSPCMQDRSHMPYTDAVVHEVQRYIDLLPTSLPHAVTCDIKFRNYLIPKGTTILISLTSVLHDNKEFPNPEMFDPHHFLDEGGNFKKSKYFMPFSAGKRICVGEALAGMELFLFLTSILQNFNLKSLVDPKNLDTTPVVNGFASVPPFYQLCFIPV
Sequence of Voltage-gated inwardly rectifying potassium channel KCNH2 (Q12809 whole entry): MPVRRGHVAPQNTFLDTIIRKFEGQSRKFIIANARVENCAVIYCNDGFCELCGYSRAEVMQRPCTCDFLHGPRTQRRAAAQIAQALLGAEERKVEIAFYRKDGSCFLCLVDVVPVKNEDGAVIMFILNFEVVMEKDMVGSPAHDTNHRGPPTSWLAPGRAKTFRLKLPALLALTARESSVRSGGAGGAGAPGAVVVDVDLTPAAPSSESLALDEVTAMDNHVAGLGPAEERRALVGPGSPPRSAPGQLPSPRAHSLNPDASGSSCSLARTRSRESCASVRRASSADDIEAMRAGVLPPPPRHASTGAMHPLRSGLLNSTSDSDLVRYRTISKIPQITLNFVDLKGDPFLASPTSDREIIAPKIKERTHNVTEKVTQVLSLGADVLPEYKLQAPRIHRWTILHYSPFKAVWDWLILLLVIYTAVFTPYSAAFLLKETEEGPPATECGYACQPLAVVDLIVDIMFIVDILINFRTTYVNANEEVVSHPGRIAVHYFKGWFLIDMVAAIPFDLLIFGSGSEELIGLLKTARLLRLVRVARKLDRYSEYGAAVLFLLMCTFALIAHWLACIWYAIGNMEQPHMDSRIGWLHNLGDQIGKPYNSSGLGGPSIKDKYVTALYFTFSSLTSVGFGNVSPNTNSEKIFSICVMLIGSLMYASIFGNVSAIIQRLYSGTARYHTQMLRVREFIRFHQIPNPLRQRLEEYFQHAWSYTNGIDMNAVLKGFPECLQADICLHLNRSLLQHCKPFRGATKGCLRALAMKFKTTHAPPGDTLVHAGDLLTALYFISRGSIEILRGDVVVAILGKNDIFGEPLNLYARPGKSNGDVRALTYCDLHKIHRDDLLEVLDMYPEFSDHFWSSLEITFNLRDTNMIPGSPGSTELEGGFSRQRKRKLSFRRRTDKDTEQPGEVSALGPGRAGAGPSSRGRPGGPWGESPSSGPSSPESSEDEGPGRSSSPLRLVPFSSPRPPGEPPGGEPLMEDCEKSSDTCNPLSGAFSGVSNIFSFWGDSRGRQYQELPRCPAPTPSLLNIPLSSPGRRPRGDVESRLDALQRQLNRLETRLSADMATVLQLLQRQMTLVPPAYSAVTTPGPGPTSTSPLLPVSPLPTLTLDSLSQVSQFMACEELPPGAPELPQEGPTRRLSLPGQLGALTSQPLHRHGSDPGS

**Q.** For COc1cc(C)[nH]c(=O)c1CNC(=O)c1c(C)n([C@H](C)C2CCN(CC(F)(F)F)CC2)c2ccccc12 [CPI-1205], which half-life [1] is on record?
**A.** Its half-life is 1.63 h.

**Q.** And the Vd [2]?
**A.** Its Vd is 1.36 L/kg.

**Q.** What about the Tmax [3] of the same compound?
**A.** Its Tmax is 0.5 h.

**Q.** What about the Cmax [4] of the same compound?
**A.** The Cmax was 1.24 µM.

**Q.** What about the Activity (KARPAS-422 [5]) of the same compound?
**A.** Its Activity is “Active”.

**Q.** And the F [6]?
**A.** Its F is 100%.

**Q.** And the Activity [7]?
**A.** The Activity was “Non-Toxic”.

**Q.** And the fraction unbound [8]?
**A.** Its fraction unbound is 0.101.

**Q.** And the inhibition at 10 µM (CYP2C9)?
**A.** Its inhibition at 10 µM is 11.1%.

**Q.** And the fAUC [9]?
**A.** The fAUC was 0.309 µM·h.

**Q.** And the inhibition at 10 µM (CYP3A4)?
**A.** Its inhibition at 10 µM is 0%.

**Q.** And the Fu [10]?
**A.** The Fu was 0.021%.

**Q.** What about the half-life [11] of the same compound?
**A.** Its half-life is 0.653 h.

**Q.** What about the Cmax [12] of the same compound?
**A.** Its Cmax is 5.88 µM.

**Q.** And the inhibition at 10 µM (CYP2D6)?
**A.** The inhibition at 10 µM was 9.5%.

**Q.** What about the fraction unbound [13] of the same compound?
**A.** Its fraction unbound is 0.072.

**Q.** What about the TDI (Cytochrome P450 3A4) of the same compound?
**A.** The TDI was “Not Active”.

**Q.** And the fraction unbound [14]?
**A.** Its fraction unbound is 0.097.

**Q.** And the clearance [15]?
**A.** The clearance was 23.5 mL/min/kg.

**Q.** What about the fAUC [16] of the same compound?
**A.** The fAUC was 1.87 µM·h.

**Q.** What about the CL free [17] of the same compound?
**A.** Its CL free is 527 mL/min/kg.

**Q.** And the CL [18]?
**A.** The CL was 97%.

**Q.** And the fAUC [19]?
**A.** Its fAUC is 0.713 µM·h.

**Q.** And the IC50 [20]?
**A.** Its IC50 is 21.3 µM.

**Q.** And the clearance [21]?
**A.** Its clearance is 53.2 mL/min/kg.

**Q.** What about the CLH [22] of the same compound?
**A.** The CLH was 159 µL/min.

**Q.** What about the CL [23] of the same compound?
**A.** Its CL is 76%.

**Q.** What about the inhibition in vivo at 160 mg/kg (KARPAS-422 [24]) of the same compound?
**A.** Its inhibition in vivo at 160 mg/kg is > 97%.

**Q.** What about the TDI (Cytochrome P450 2C8) of the same compound?
**A.** The TDI was “Not Active”.

**Q.** And the Activity [25]?
**A.** Its Activity is “Non-Toxic”.

**Q.** And the concentration at 408 h [26]?
**A.** Its concentration at 408 h is 11400 ng/mL.

**Q.** And the AUC(0-inf) [27]?
**A.** Its AUC(0-inf) is 7.06 µM·h.

**Q.** What about the F [28] of the same compound?
**A.** Its F is 44.6%.

**Q.** And the Cmax [29]?
**A.** The Cmax was 67.4 µM.

**Q.** What about the clearance [30] of the same compound?
**A.** The clearance was 36 mL/min/kg.

**Q.** What about the AUC [31] of the same compound?
**A.** Its AUC is 88.88 µM·h.

**Q.** And the F [32]?
**A.** Its F is 46.2%.

**Q.** And the Fu [33]?
**A.** Its Fu is 0.021%.

**Q.** And the CL [34]?
**A.** The CL was 40%.

**Q.** And the half-life [35]?
**A.** Its half-life is 1.84 h.

**Q.** And the CLH [36]?
**A.** Its CLH is 73.9 µL/min.

**Q.** And the Vd [37]?
**A.** The Vd was 1.6 L/kg.

**Q.** What about the AUC(0-inf) [38] of the same compound?
**A.** The AUC(0-inf) was 3.19 µM·h.
